Data from PubChem BioAssay AID1963840 (Molecular Pharmacology Branch, DTP, NCI, 2024).

Tested on: 695427-040-R-J1-PDC complex spheroid viability
Assay: Anticancer human tumor 695427-040-R-J1-PDC patient-derived colon adenocarcinoma cell line growth inhibition [POLQ]
Details: for IC50: curve of first compound; for viability, T/C: stronger effect = lower value; active = viability on the fitted dose curve at most 10% of control; inactive = the rest
Protocol: Multicellular complex tumor spheroid response to Polymerase (POL) inhibitors (novobiocin, ART-558, RP6685) in combination with a variety of drugs and investigational agents in selected tumor cell lines
The POL inhibitors (novobiocin, ART-558, and RP6685) were evaluated both individually and in combination with standard of care and investigational anticancer small molecules within a complex spheroid model of solid tumors. . Complex spheroids include a stromal component modeled by human endothelial cells (HUVEC) and fibroblasts modeled by human mesenchymal stem cells (MSCs). The concentration ranges selected for each drug and investigational agent were based upon clinically achievable concentrations if the clinical Cmax of the agent was known.
Compounds. The drugs and investigational agents: novobiocin (NSC847541), ART-558 (NSC835418), RP-6685 (NSC848927), peposertib (NSC802822), ceralasertib (NSC780249), elimusertib (NSC800525), camonsertib (NSC841442), AZD-1390 (NSC803789), olaparib (NSC753686), talazoparib (NSC767125), rucaparib (NSC756644), sotorasib (NSC818433), MRTX-1133 (NSC836407), SN-38 (NSC673596), topotecan (NSC609699), epotoside (NSC141540), doxorubicin (NSC123127), gemcitabine (NSC613327), 5-fluorouracil (NSC19893), paclitaxel (NSC125973), vemurafenib (NSC761431), MSA-2 (NSC828583), SN-011 (NSC837082), adavosertib (NSC754352), prexasertib (NSC758257), carboplatin (NSC241240) and oxaliplatin (NSC266046), were obtained from the National Cancer Institute (NCI) Developmental Therapeutics Program Chemical Repository (21). The FDA-approved anticancer drug set is available from the Developmental Therapeutics Program at https://dtp.cancer.gov/organization/dscb/obtaining/. […] The stock solutions were prepared in dimethyl sulfoxide (DMSO, Sigma-Aldrich, St. Louis, MO, cat. D2650), except for the platinum compounds which were prepared in saline (Quality Biological, Gaithersburg, MD, cat. 114-055-101), at 800-fold the tested concentration and stored at -70 degrees C prior to their use. All drugs and investigational agents were tested over a range starting from a high concentration at or near the clinical Cmax and decreasing in half-log increments. If the clinical Cmax for an agent had not been determined, the highest concentration tested was 10 microM, except for SN-38, which was tested at a high concentration of 1 microM.
Cell Culture. All cells were maintained in an incubator at 37 degrees C and 5% CO2 with 95% humidity. The PDC lines were cultured according to standard operating procedures established by the NCI PDMR (https://pdmr.cancer.gov). Table 3 of the manuscript, lists the cell lines along with the number of the three cell types plated to form the mct-spheroids and media for tumor cell growth. After thawing, all PDC lines, except 997537-175-T-J1-PDC and 415267-285-R-J2-PDC, were cultured in Matrigel-coated flasks prepared with a working solution of 1X Ham's F-12 nutrient mix, without supplementation (Thermo Fisher Scientific, cat. 11765054), 100 U/mL penicillin-streptomycin (Thermo Fisher Scientific, cat. 15140122), and 2.5% Matrigel (Corning Inc., Corning, NY, cat. 354248) for the first three passages. The two PDC lines 997537-175-T-J1-PDC and 415267-285-R-J2-PDC were cultured on uncoated flasks. The 857933-349-R-J2-PDC line was cultured in 6C/Colon 1B media containing advanced DMEM/F-12 (Thermo Fisher Scientific, cat. 12634028), 10 mM HEPES (Thermo Fisher Scientific, cat. 15630080), 1X GlutaMAX supplement (Thermo Fisher Scientific, cat. 35050061), 0.1 mg/mL primocin (InvivoGen, San Diego, CA, cat. ant-pm-2), 10% defined fetal bovine serum, heat inactivated (HyClone Laboratories Inc., Logan, UT, cat. SH30070.03HI), 50% L-WRN conditioned media (ATCC, cat. CRL-3276), 1.25 mM N-Acetyl-L-cysteine (Sigma-Aldrich, cat. A9165), 10 mM nicotinamide (Sigma-Aldrich, cat. N0636), 1X B-27 supplement (Thermo Fisher Scientific, cat. 17504044), 1X N-2 supplement (Thermo Fisher Scientific, cat. […]

[1] = second compound 0.0316 µM, first compound 0.00316 µM
[2] = second compound 0.0316 µM, first compound 0.01 µM
[3] = second compound 0.0316 µM, first compound 0.0316 µM
[4] = second compound 0.0316 µM, first compound 0.1 µM
[5] = second compound 0.1 µM, first compound 0.00316 µM
[6] = second compound 0.1 µM, first compound 0.01 µM
[7] = second compound 0.1 µM, first compound 0.0316 µM
[8] = second compound 0.1 µM, first compound 0.1 µM
[9] = second compound 0.316 µM, first compound 0.00316 µM
[10] = second compound 0.316 µM, first compound 0.01 µM
[11] = second compound 0.316 µM, first compound 0.0316 µM
[12] = second compound 0.316 µM, first compound 0.1 µM
[13] = second compound 1 µM, first compound 0.00316 µM
[14] = second compound 1 µM, first compound 0.01 µM
[15] = second compound 1 µM, first compound 0.0316 µM
[16] = second compound 1 µM, first compound 0.1 µM
[17] = second compound 3.16 µM, first compound 0.00316 µM
[18] = second compound 3.16 µM, first compound 0.01 µM
[19] = second compound 3.16 µM, first compound 0.0316 µM
[20] = second compound 3.16 µM, first compound 0.1 µM
[21] = second compound 10 µM, first compound 0.00316 µM
[22] = second compound 10 µM, first compound 0.01 µM
[23] = second compound 10 µM, first compound 0.0316 µM
[24] = second compound 10 µM, first compound 0.1 µM
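Note: spheroids exposed to compounds for seven days.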

CC[C@@]1(O)C(=O)OCc2c1cc1n(c2=O)Cc2cc3c(CN(C)C)c(O)ccc3nc2-1 + COC1C(OC(N)=O)C(O)C(Oc2ccc3c(O)c(NC(=O)c4ccc(O)c(CC=C(C)C)c4)c(=O)oc3c2C)OC1(C)C
> 0.1 µM: IC50 (second compound 0.0316 µM) | IC50 (second compound 0.1 µM) | IC50 (second compound 0.316 µM) | IC50 (second compound 1 µM) | IC50 (second compound 3.16 µM) | IC50 (second compound 10 µM)
inactive: viability, T/C (second compound 0.0316 µM, first compound 0.000316 µM) 103% | viability, T/C (second compound 0.0316 µM, first compound 0.001 µM) 96.8% | viability, T/C [1] 97.8% | viability, T/C [2] 103% | viability, T/C [3] 100% | viability, T/C [4] 95.1% | viability, T/C (second compound 0.1 µM, first compound 0.000316 µM) 116% | viability, T/C (second compound 0.1 µM, first compound 0.001 µM) 104% | viability, T/C [5] 101% | viability, T/C [6] 102% | viability, T/C [7] 104% | viability, T/C [8] 99.5% | viability, T/C (second compound 0.316 µM, first compound 0.000316 µM) 102% | viability, T/C (second compound 0.316 µM, first compound 0.001 µM) 102% | viability, T/C [9] 106% | viability, T/C [10] 104% | viability, T/C [11] 105% | viability, T/C [12] 92.4% | viability, T/C (second compound 1 µM, first compound 0.000316 µM) 108% | viability, T/C (second compound 1 µM, first compound 0.001 µM) 102% | viability, T/C [13] 99.6% | viability, T/C [14] 98.1% | viability, T/C [15] 106% | viability, T/C [16] 93.1% | viability, T/C (second compound 3.16 µM, first compound 0.000316 µM) 97.2% | viability, T/C (second compound 3.16 µM, first compound 0.001 µM) 101% | viability, T/C [17] 103% | viability, T/C [18] 97.2% | viability, T/C [19] 105% | viability, T/C [20] 86% | viability, T/C (second compound 10 µM, first compound 0.000316 µM) 107% | viability, T/C (second compound 10 µM, first compound 0.001 µM) 103% | viability, T/C [21] 105% | viability, T/C [22] 106% | viability, T/C [23] 105% | viability, T/C [24] 93%

CCc1c2c(nc3ccc(O)cc13)-c1cc3c(c(=O)n1C2)COC(=O)[C@]3(O)CC + COC1C(OC(N)=O)C(O)C(Oc2ccc3c(O)c(NC(=O)c4ccc(O)c(CC=C(C)C)c4)c(=O)oc3c2C)OC1(C)C
0.985 µM: IC50 (second compound 1 µM)
> 1 µM: IC50 (second compound 0.316 µM)
inactive: viability, T/C [1] 97.5% | viability, T/C [2] 89% | viability, T/C [3] 82.6% | viability, T/C [4] 78.9% | viability, T/C (second compound 0.0316 µM, first compound 0.316 µM) 68.2% | viability, T/C (second compound 0.0316 µM, first compound 1 µM) 48.1% | viability, T/C [5] 102% | viability, T/C [6] 91.4% | viability, T/C [7] 86.9% | viability, T/C [8] 78.4% | viability, T/C (second compound 0.1 µM, first compound 0.316 µM) 68.4% | viability, T/C (second compound 0.1 µM, first compound 1 µM) 46.9% | viability, T/C [9] 107% | viability, T/C [10] 94.4% | viability, T/C [11] 78.8% | viability, T/C [12] 78.3% | viability, T/C (second compound 0.316 µM, first compound 0.316 µM) 68.8% | viability, T/C (second compound 0.316 µM, first compound 1 µM) 50.5% | viability, T/C [13] 97.3% | viability, T/C [14] 97.5% | viability, T/C [15] 81.7% | viability, T/C [16] 78.9% | viability, T/C (second compound 1 µM, first compound 0.316 µM) 69.1% | viability, T/C (second compound 1 µM, first compound 1 µM) 48.4% | viability, T/C [17] 97% | viability, T/C [18] 90.9% | viability, T/C [19] 87.7% | viability, T/C [20] 75.8% | viability, T/C (second compound 3.16 µM, first compound 0.316 µM) 63.2% | viability, T/C (second compound 3.16 µM, first compound 1 µM) 47% | viability, T/C [21] 98.7% | viability, T/C [22] 84.6% | viability, T/C [23] 85.7% | viability, T/C [24] 74.5% | viability, T/C (second compound 10 µM, first compound 0.316 µM) 64.2% | viability, T/C (second compound 10 µM, first compound 1 µM) 42%
0.893 µM: IC50 (second compound 0.1 µM)
0.976 µM: IC50 (second compound 0.0316 µM)
0.809 µM: IC50 (second compound 3.16 µM)
0.656 µM: IC50 (second compound 10 µM)
